The numbers were not newly measured in patent US10779570B2, “Aerosol from tobacco” (PHILIP MORRIS PRODUCTS S.A., priority 2013, dated 2020), which cites them from elsewhere.

Read-outs that look alike come from different tables or passages of the source.

For data set [1] the following is noted: smoke constituent.
The conditions of data set [2]: biomarker of exposure in urine.

Consider `C=CC=C` [1,3-Butadiene], for which the “Organ Class toxicity” value in data set [1] is reported as “CA, RT, RDT”. On to `Nc1ccc2ccccc2c1` [2-Aminonaphthalene], for which the “Biomarker t1/2β” value in data set [2] (plasma or blood) was 9 h. Take `CC(=O)N[C@@H](CSCCC#N)C(=O)O` [2-Cyanoethylmercapturic acid]: in data set [2] (plasma or blood), the “Biomarker t1/2β” value is reported as 17 h. Turning to `CC(=O)N[C@@H](CSCCO)C(=O)O` [2-Hydroxyethyl-mercapturic acid], the “Biomarker t1/2β” value in data set [2] (plasma or blood) is on record as 5 h. Turning to `CC(=O)N[C@@H](CSC(C)CCO)C(=O)O` (stereo partly drawn) [3-Hydroxy-1-methylpropyl-mercapturic acid], the “Biomarker t1/2β” value in data set [2] is 48 h. As for `CC(=O)N[C@@H](CSCCCO)C(=O)O` [3-Hydroxypropyl-mercapturic acid], the “Biomarker t1/2β” value in data set [2] (plasma or blood) is 10 h. As for `Nc1ccc(-c2ccccc2)cc1` [4-Aminobiphenyl], in data set [2] (plasma or blood), the “Biomarker t1/2β” value is reported as 26 h.

As for `C=CC=O` [Acrolein], the “Organ Class toxicity” value in data set [1] is listed as “RT, CT”. Regarding `C=CC#N` [Acrylonitrile], in data set [1], the “Organ Class toxicity” value is “CA, RT”. For the molecule `c1ccccc1` [Benzene], in data set [1], the “Organ Class toxicity” value was “CA, CT, RDT”.

For `[C-]#[O+]` [Carbon monoxide], the “Organ Class toxicity” value in data set [1] is given as “RDT, CT”. `C1CO1` [Ethylene Oxide]: the “Organ Class toxicity” value in data set [1] is given as “CA, RT, RDT”.

Consider `O=NN1CCC[C@H]1c1cccnc1` [NNN, N-nitrosonornicotine], for which, in data set [2] (plasma or blood), the “Biomarker t1/2β” value was 15 h.

In the case of `Cc1ccccc1` [Toluene], in data set [1], the “Organ Class toxicity” value is on record as “RT, RDT”. For S-benzyl-mercapturic acid, in data set [2] (plasma or blood), the “Biomarker t1/2β” value is listed as 9 h.
